Reference: PubChem BioAssay (NCI)
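Briefly, cells in 96-well plates were exposed to five compound concentrations for 48 h, and endpoints were estimated by linear interpolation. GI50: concentration for 50% inhibition of growth. The concentration for full growth arrest is given as TGI.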 Non-standard residues stand in square brackets, D forms with d. Residues, ends and D or L forms follow the SMILES beside them. *: point of attachment. ONb = O=[N+]([O-])c1ccc(CO*)cc1; AllylGly = C=CC[CH](N)C(=O)O; Boc = CC(C)(C)OC(=O)*

Assays:
Test in all cases: NCI tumour cell line growth inhibition, 48 h
UO-31 renal = system: UO-31 renal
OVCAR-8 ovarian = system: OVCAR-8 ovarian
SK-MEL-5 melanoma = system: SK-MEL-5 melanoma
SK-MEL-28 melanoma = system: SK-MEL-28 melanoma
786-0 renal = system: 786-0 renal
OVCAR-5 ovarian = system: OVCAR-5 ovarian
SK-OV-3 ovarian = system: SK-OV-3 ovarian
MALME-3M melanoma = system: MALME-3M melanoma
SNB-19 CNS = system: SNB-19 CNS
OVCAR-4 ovarian = system: OVCAR-4 ovarian

| Compound | TGI (UO-31 renal) | TGI (OVCAR-8 ovarian) [µM] | TGI (SK-MEL-5 melanoma) [µM] | TGI (SK-MEL-28 melanoma) | TGI (786-0 renal) | TGI (OVCAR-5 ovarian) [µM] | TGI (SK-OV-3 ovarian) | TGI (MALME-3M melanoma) | TGI (SNB-19 CNS) [µM] | TGI (OVCAR-4 ovarian) [µM] | GI50 (OVCAR-8 ovarian) | GI50 (SK-MEL-5 melanoma) [µM] | GI50 (OVCAR-4 ovarian) | GI50 (SK-MEL-28 melanoma) | GI50 (786-0 renal) | GI50 (SK-OV-3 ovarian) | GI50 (MALME-3M melanoma) | GI50 (SNB-19 CNS) [µM] | GI50 (UO-31 renal) | GI50 (OVCAR-5 ovarian) |
| --- | --- | --- | --- | --- | --- | --- | --- | --- | --- | --- | --- | --- | --- | --- | --- | --- | --- | --- | --- | --- |
| CCOC/N=C(/N)NC#N | > 100 µM | > 100 | > 100 | > 100 µM | 56.2 µM | > 100 | > 100 µM | > 100 µM | > 100 | – | – | – | – | – | – | – | – | – | – | – |
| CC[C@H](C)N(CCN)C(=O)c1cc2ccccc2c(-c2ccccc2Cl)n1 | 25.3 µM | 27.6 | – | 27 µM | > 100 µM | 27.9 | – | – | 30.2 | 30.1 | – | – | – | – | – | – | – | – | – | – |
| Nc1ccn(CCOC(=O)c2ccccc2)c(=O)n1 | > 100 µM | > 100 | > 100 | > 100 µM | > 100 µM | > 100 | > 100 µM | > 100 µM | – | > 100 | – | – | – | – | – | – | – | – | – | – |
| CCC[CH2][Sn-]([CH2]CCC)([CH2]CCC)[O]c1cc(Cl)c(Cl)cc1Cl | – | 0.557 | 0.335 | 0.365 µM | 0.318 µM | – | 0.379 µM | 0.379 µM | 0.445 | 0.398 | 0.221 µM | 0.168 | 0.148 µM | 0.167 µM | 0.163 µM | 0.15 µM | 0.174 µM | 0.143 | – | – |
| O=C(CNc1nncs1)NO | > 100 µM | > 100 | – | > 100 µM | > 100 µM | > 100 | > 100 µM | > 100 µM | > 100 | > 100 | – | – | – | – | – | – | – | – | – | – |
| COc1cccc2cc(C)c(C(=O)c3ccccc3)nc12 | > 100 µM | > 100 | > 100 | > 100 µM | > 100 µM | > 100 | – | > 100 µM | > 100 | > 100 | – | – | – | – | – | – | – | – | – | – |
| COc1nc(N(C)O)nc(N(C)O)n1 | > 100 µM | > 100 | 23.1 | > 100 µM | 33.2 µM | – | > 100 µM | 24 µM | > 100 | > 100 | 2.48 µM | 1.47 | 2.33 µM | 2.41 µM | 3.74 µM | 1.75 µM | 2.22 µM | 2.38 | 1.13 µM | – |
| COc1ccc2cc(C(=O)/C=C/c3cc(OC)c(OC)c(OC)c3)ccc2c1 | 15.5 µM | > 50 | 1.01 | 13.8 µM | 15.7 µM | – | 46.4 µM | 25.8 µM | 26.3 | > 50 | 2.01 µM | 0.0737 | 2.82 µM | 3.91 µM | 7.61 µM | 12.5 µM | 11 µM | 12.9 | 7.44 µM | – |
| Cn1c(=O)nc2n(-c3ccc(Cl)cc3)c3ccc(Cl)cc3nc-2c1=O | 39.8 µM | 52.5 | 2.37 | 21.4 µM | 54.7 µM | 29.6 | > 100 µM | – | – | – | – | – | – | – | – | – | – | – | – | – |
| Cc1cc2c(c(C#N)c1C)NC(=O)CCC2=O | 91.4 µM | > 100 | – | > 100 µM | > 100 µM | – | – | – | – | > 100 | – | – | – | – | – | – | – | – | – | – |
| COc1ccc(Cl)cc1Nc1nc(C(F)(F)F)ccc1C(=O)N/N=C/c1c(Cl)cccc1Cl | – | – | – | > 100 µM | > 100 µM | > 100 | > 100 µM | 54.7 µM | > 100 | > 100 | – | – | 5.16 µM | > 100 µM | 8.49 µM | 7.67 µM | 3.46 µM | 11.4 | – | > 100 µM |
| C=CCC(NC(=O)OC(C)(C)C)C(=O)NC(CCC(=O)OCc1ccc([N+](=O)[O-])cc1)C(N)=O (stereo not drawn) (Boc-[AllylGly]-Glu(ONb)-NH2; configuration not given here) | 38.5 µg/mL | – | – | 30.9 µg/mL | 52 µg/mL | – | 66.3 µg/mL | 33.1 µg/mL | – | – | 35.8 µg/mL | – | 87.2 µg/mL | 16.3 µg/mL | 21.9 µg/mL | 24.6 µg/mL | 18.4 µg/mL | – | 19.7 µg/mL | 64.1 µg/mL |
| COc1ccc2[nH]c3c(c2c1)CCN(C)CC3 | – | > 100 | > 100 | > 100 µM | > 100 µM | > 100 | > 100 µM | > 100 µM | > 100 | > 100 | – | – | – | – | – | – | – | – | – | – |
| COc1cc(-c2nn(-c3ccc(NC(=O)c4ccc(Cl)c(Cl)c4)cc3)cc2-c2ccncc2)ccc1Cl | 9.85 µM | > 100 | – | > 100 µM | 4.59 µM | > 100 | > 100 µM | – | > 100 | > 100 | 5.28 µM | – | 23.4 µM | 40.3 µM | 2.05 µM | > 100 µM | – | 26.7 | 2.73 µM | > 100 µM |
| COC(=O)C1CC2(CC3=C1CCCC3)OCCO2 (stereo not drawn) | > 100 µM | > 100 | > 100 | > 100 µM | > 100 µM | – | > 100 µM | > 100 µM | > 100 | > 100 | – | – | – | – | – | – | – | – | – | – |
| CC(=O)O/C=C(/C=C/OC(C)=O)C(C/C=C(\C)C#CC=C(C)C)OC(C)=O (stereo not drawn) | > 100 µM | > 100 | > 100 | – | > 100 µM | > 100 | > 100 µM | > 100 µM | > 100 | > 100 | – | – | – | – | – | – | – | – | – | – |
| CC(=O)C1CC(C)=CCC12C(=O)Nc1ccccc12 (stereo not drawn) | – | > 100 | > 100 | > 100 µM | > 100 µM | > 100 | > 100 µM | > 100 µM | > 100 | > 100 | – | – | – | – | – | – | – | – | – | – |
| CC1=C(C(=O)Nc2c(C)cccc2C)C(c2ccc3c(c2)OCO3)C(C(=O)Nc2c(C)cccc2C)=C(C)N1 | 30.6 µM | 44.2 | – | 46 µM | 28.2 µM | 33.7 | > 100 µM | 45.7 µM | 32 | 77.3 | – | – | – | – | – | – | – | – | – | – |
| CNC(P(=O)([O-])[O-])P(=O)([O-])[O-].N.N.[Pt+2] | > 100 µM | > 100 | – | > 100 µM | > 100 µM | > 100 | – | > 100 µM | > 100 | > 100 | > 100 µM | – | > 100 µM | > 100 µM | > 100 µM | – | > 100 µM | > 100 | > 100 µM | > 100 µM |
| N#Cc1c(Sc2ccccc2N)cccc1Sc1ccccc1N | – | – | – | – | – | – | – | – | – | – | 53.8 µM | 34.7 | 42.1 µM | – | 37.8 µM | – | 25.3 µM | 97.5 | 7.56 µM | – |
